Laboratory results taken from ChEMBL document CHEMBL1138198, “Carbonic anhydrase inhibitors: DNA cloning and inhibition studies of the alpha-carbonic anhydrase from Helicobacter pylori, a new target for developing sulfonamide and sulfamate gastric drugs” (J Med Chem, 2006).

Assays:
[1] = molecular target: Carbonic anhydrase 1 (Homo sapiens, UniProt P00915)
Description: Inhibition of human recombinant carbonic anhydrase 1 by stopped-flow CO2 hydrase assay

[2] = molecular target: T1, Carbonic anhydrase (Helicobacter pylori (strain ATCC 700392 / 26695) (Campylobacterpylori), UniProt O24855)
T1 sequence (O24855 whole entry): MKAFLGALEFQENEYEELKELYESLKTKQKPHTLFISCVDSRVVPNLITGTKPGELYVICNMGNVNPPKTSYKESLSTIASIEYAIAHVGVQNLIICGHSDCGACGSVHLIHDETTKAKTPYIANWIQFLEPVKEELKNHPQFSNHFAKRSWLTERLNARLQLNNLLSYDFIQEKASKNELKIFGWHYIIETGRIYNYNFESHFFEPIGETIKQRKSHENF
Description: Inhibition of Helicobacter pylori recombinant carbonic anhydrase by stopped-flow CO2 hydrase assay

Chain of Carbonic anhydrase 1 (P00915 whole entry): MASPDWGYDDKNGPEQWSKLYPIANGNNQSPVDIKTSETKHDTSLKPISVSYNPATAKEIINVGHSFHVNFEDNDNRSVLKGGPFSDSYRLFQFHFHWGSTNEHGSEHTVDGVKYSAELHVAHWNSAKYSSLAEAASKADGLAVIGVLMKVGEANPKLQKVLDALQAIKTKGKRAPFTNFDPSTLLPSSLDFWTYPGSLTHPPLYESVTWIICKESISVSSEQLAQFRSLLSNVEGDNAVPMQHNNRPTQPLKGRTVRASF

With `CC(C)(C)c1ccc(C(=O)Nc2cccc(S(N)(=O)=O)c2)cc1` as the molecule, how does the Ki [1] read?
Its Ki is 10800 nM.

And the Ki [2]?
The Ki was 316 nM.

With `CC(C)(C)c1ccc(S(=O)(=O)Nc2ccc(S(N)(=O)=O)cc2)cc1` as the molecule, how does the Ki [1] read?
The Ki was 13000 nM.

What about the Ki [2] of the same molecule?
Its Ki is 60 nM.

What does the source list for `CC(C)(C)c1ccc(S(=O)(=O)Nc2ccccc2S(N)(=O)=O)cc1`?
Ki [1]: 14700 nM; Ki [2]: 640 nM

With `CC(C)(C)c1ccc(S(=O)(=O)CCNc2ccc(S(N)(=O)=O)cc2)cc1` as the molecule, how does the Ki [1] read?
The Ki was 12000 nM.

What about the Ki [2] of the same molecule?
The Ki was 27 nM.

Which Ki [1] does the source give for `CC(C)(C)c1ccc(C(=O)NCCc2ccc(S(N)(=O)=O)cc2)cc1` here?
The Ki was 12400 nM.

What about the Ki [2] of the same molecule?
The Ki was 51 nM.

What does the source list for `CC(C)(C)c1ccc(C(=O)Nc2ccccc2S(N)(=O)=O)cc1`?
Ki [1]: 12300 nM; Ki [2]: 539 nM

How did the Ki [1] turn out when `CC(C)(C)c1ccc(S(=O)(=O)CNc2ccc(S(N)(=O)=O)cc2)cc1` was run?
Its Ki is 12100 nM.

And the Ki [2]?
The Ki was 31 nM.

With `CC(C)(C)c1ccc(S(=O)(=O)Nc2cccc(S(N)(=O)=O)c2)cc1` as the molecule, how does the Ki [1] read?
The Ki was 9620 nM.

What about the Ki [2] of the same molecule?
The Ki was 318 nM.

What does the source list for `CC(C)(C)c1ccc(S(=O)(=O)Nc2nnc(S(N)(=O)=O)s2)cc1`?
Ki [1]: 338 nM; Ki [2]: 12 nM

`CC(C)(C)c1ccc(C(=O)Nc2nnc(S(N)(=O)=O)s2)cc1` was tested. Which Ki [1] did it give?
The Ki was 541 nM.

And the Ki [2]?
The Ki was 13 nM.

Which Ki [2] does the source give for `Nc1ccc(S(=O)(=O)NCc2ccc(S(N)(=O)=O)cc2)cc1` here?
Its Ki is 131 nM.

How did the Ki [2] turn out when `Nc1ccc(S(N)(=O)=O)cc1I` was run?
Its Ki is 510 nM.

How did the Ki [2] turn out when `Nc1ccc(S(=O)(=O)Nc2nnc(S(N)(=O)=O)s2)cc1` was run?
The Ki was 268 nM.

Which results are given for `CC(C)(C)c1ccc(C(=O)NCc2ccc(S(N)(=O)=O)cc2)cc1`?
Ki [1]: 13300 nM; Ki [2]: 62 nM

For `CC(C)(C)c1ccc(C(=O)Nc2ccc(S(N)(=O)=O)cc2)cc1`, which Ki [1] is on record?
The Ki was 14200 nM.

And the Ki [2]?
Its Ki is 79 nM.

For `Nc1nccc(Nc2ccc(S(N)(=O)=O)cc2)n1`, which Ki [2] is on record?
The Ki was 84 nM.

With `Nc1ccc(S(N)(=O)=O)cc1Br` as the molecule, how does the Ki [2] read?
Its Ki is 452 nM.

With `Cn1nc(S(N)(=O)=O)sc1=N` as the molecule, how does the Ki [2] read?
Its Ki is 549 nM.

How did the Ki [2] turn out when `Nc1ccc(S(N)(=O)=O)cc1F` was run?
Its Ki is 1230 nM.

For `Nc1ccc(S(N)(=O)=O)cc1Cl`, which Ki [2] is on record?
The Ki was 378 nM.

With `Nc1ccc(S(=O)(=O)NCCc2ccc(S(N)(=O)=O)cc2)cc1` as the molecule, how does the Ki [2] read?
Its Ki is 114 nM.

`NS(=O)(=O)c1ccc(S(=O)(=O)Nc2cccc3c(Cl)c[nH]c23)cc1` was tested. Which Ki [2] did it give?
Its Ki is 413 nM.

`CCN[C@H]1CN(CCCOC)S(=O)(=O)c2sc(S(N)(=O)=O)cc21` [BRINZOLAMIDE] was tested. Which Ki [2] did it give?
Its Ki is 210 nM.

With `NS(=O)(=O)c1ccc(C(=O)O)cc1` [CARZENIDE] as the molecule, how does the Ki [2] read?
The Ki was 1050 nM.

Which Ki [2] does the source give for `NCc1ccc(S(N)(=O)=O)cc1` [MAFENIDE] here?
The Ki was 873 nM.

Which Ki [2] does the source give for `Cc1ccc(S(N)(=O)=O)cc1` [P-TOLUENESULFONAMIDE] here?
The Ki was 450 nM.
